The NIST ThermoML archive (doi:10.1016/j.fluid.2005.11.026)
Values joined by “and” are separate entries in the source; they are usually repeats but may differ in a detail not shown here. Equal entries are not always repeated. Numbers after ± are expanded uncertainties.

Conditions: 313.15 K; Liquid; Closed cell (Static) method

| Structure (SMILES) | vapor or sublimation pressure |
| --- | --- |
| C1CCCCC1 [cyclohexane] | 24.62 ± 0.096 kPa |
| Cc1ccccc1 [toluene] | 7.881 ± 0.041 kPa and 7.888 ± 0.041 kPa and 7.889 ± 0.041 kPa |
